Ki data for 22 molecules are collected here from ChEMBL document CHEMBL1139687, “Inhibitory effect of carboxylic acid group on hERG binding” (Bioorg Med Chem Lett, 2006).

Sequence of Voltage-gated inwardly rectifying potassium channel KCNH2 (Q12809 whole entry): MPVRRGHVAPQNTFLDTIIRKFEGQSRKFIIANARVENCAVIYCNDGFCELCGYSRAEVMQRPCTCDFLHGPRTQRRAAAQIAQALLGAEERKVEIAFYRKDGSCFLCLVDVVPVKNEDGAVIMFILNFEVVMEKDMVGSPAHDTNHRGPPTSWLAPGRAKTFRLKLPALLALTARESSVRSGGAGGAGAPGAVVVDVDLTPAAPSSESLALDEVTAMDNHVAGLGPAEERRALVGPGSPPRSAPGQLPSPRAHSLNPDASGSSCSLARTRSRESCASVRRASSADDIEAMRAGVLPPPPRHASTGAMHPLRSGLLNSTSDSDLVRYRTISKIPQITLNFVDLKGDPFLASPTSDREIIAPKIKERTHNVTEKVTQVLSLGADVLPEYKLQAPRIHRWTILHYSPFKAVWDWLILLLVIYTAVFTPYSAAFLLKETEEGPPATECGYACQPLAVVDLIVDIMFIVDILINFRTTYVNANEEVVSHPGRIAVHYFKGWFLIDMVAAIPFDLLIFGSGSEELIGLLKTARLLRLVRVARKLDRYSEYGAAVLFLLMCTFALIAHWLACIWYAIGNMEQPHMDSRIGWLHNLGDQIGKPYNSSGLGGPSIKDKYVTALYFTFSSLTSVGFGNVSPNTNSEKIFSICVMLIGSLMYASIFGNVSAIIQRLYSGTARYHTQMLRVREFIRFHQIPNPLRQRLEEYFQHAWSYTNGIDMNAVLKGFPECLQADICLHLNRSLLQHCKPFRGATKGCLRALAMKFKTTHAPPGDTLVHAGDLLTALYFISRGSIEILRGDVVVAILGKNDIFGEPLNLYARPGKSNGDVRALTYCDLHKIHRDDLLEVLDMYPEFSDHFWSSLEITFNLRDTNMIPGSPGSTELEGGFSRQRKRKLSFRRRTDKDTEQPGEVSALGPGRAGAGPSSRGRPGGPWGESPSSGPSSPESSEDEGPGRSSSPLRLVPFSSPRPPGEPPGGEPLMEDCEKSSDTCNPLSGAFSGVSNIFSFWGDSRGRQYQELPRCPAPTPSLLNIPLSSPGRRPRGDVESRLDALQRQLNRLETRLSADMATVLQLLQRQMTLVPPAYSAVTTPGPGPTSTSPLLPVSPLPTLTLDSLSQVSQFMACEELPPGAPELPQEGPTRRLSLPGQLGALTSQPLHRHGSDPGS

This experiment concerns the target Voltage-gated inwardly rectifying potassium channel KCNH2 (Homo sapiens, UniProt Q12809). The experiment can be described thus: Displacement of [3H]dofetilide from human ERG potassium channel expressed in HEK293 cells. A general note: Loss of bound radioactivity is the signal in a displacement assay; it reports binding, not function.
With `CN1CCN=C1c1ccc(C(=O)N2CCN(S(=O)(=O)c3cc4ccc(Cl)cc4s3)CC2CC(=O)N2CCCC(C(=O)O)C2)cc1` (configuration not stated), the inhibition constant Ki (as a rule, a dissociation constant, usually derived from enzyme kinetics or from competition with a known ligand) is above 10000 nM.

`CN(CC(=O)O)C(=N)c1ccc(C(=O)Nc2ccc(Cl)cc2C(=O)Nc2ccc(Cl)cn2)cc1` showed a Ki of 1400 nM.

In the case of `CCOC(=O)C1CCN(C(=N)c2ccc(C(=O)Nc3c(OC)cc(Cl)cc3C(=O)Nc3ccc(Cl)cn3)c(F)c2)CC1`, the inhibition constant Ki came to 51 nM.

With `CN(C)C(=N)c1ccc(C(=O)Nc2ccc(Cl)cc2C(=O)Nc2ccc(Cl)cn2)cc1`, the affinity corresponds to a Ki of 100 nM.

For `Cc1cc(C(=O)Nc2ccc(C(=N)N3CCCC3)cc2)n(-c2cc3ccccc3cc2C(=O)O)n1`, the Ki was above 10000 nM.

With `CN(CCCC(=O)O)C(=N)c1ccc(C(=O)Nc2ccc(Cl)cc2C(=O)Nc2ccc(Cl)cn2)cc1`, the affinity corresponds to a Ki of 1400 nM.

The molecule `CN(C)C(=N)c1ccc(C(=O)Nc2ccc(Cl)cc2C(=O)Nc2ccc(Cl)cn2)c(N2CCC(C(=O)O)CC2)c1` had an inhibition constant (Ki) above 10000 nM.

The molecule `CN(C)C(=N)c1ccc(CN2C(=O)CN(S(=O)(=O)c3cc4cc(Cl)ccc4[nH]3)C[C@@H]2C(=O)O)cc1` yielded a Ki above 10000 nM.

`N=C(c1ccc(C(=O)Nc2ccc(Cl)cc2C(=O)Nc2ccc(Cl)cn2)cc1)N1CCCC(C(=O)O)C1` (configuration not stated): the Ki is above 10000 nM.

In turn, `Cc1cc(C(=O)Nc2ccc(-c3ccccc3CN3CCCCC3)cc2F)n(-c2cc3ccccc3cc2F)n1` displayed an inhibition constant (Ki) of 1000 nM.

With `COC(=O)CCc1ccc(NC(=O)c2ccc(C(=N)N(C)C)cc2)c(C(=O)Nc2ccc(Cl)cn2)c1`, the Ki amounted to 790 nM.

On to `CN(C)C(=N)c1ccc(C(=O)Nc2ccc(Oc3ccc(C(=O)O)cc3)cc2C(=O)Nc2ccc(Cl)cn2)cc1`, for which the Ki is above 10000 nM.

Molecule `CN1CCN=C1c1ccc(C(=O)N2CCN(S(=O)(=O)c3cc4ccc(Cl)cc4s3)CC2CC(=O)N2CCOCC2)cc1` (configuration not stated) registered a Ki of 600 nM. In other words, the sub-micromolar range.

`CN(C)C(=N)c1ccc(C(=O)Nc2ccc(Cl)cc2C(=O)Nc2ccc(Cl)cn2)c(N(C)CCCC(=O)O)c1` registered a Ki above 6600 nM.

`CC(=N)N1CCC(Oc2ccc(N(Cc3ccc4ccc(C(=N)N)cc4c3)S(=O)(=O)CC(=O)O)cc2)CC1` [YM-60828] showed an inhibition constant (Ki) above 10000 nM.

Turning to `CN(C)C(=N)c1ccc(C(=O)Nc2ccc(Sc3ccc(C(=O)N(C)C)cc3)cc2C(=O)Nc2ccc(Cl)cn2)cc1`, the Ki came out at 370 nM. This lies in the sub-micromolar range.

Regarding `CN(C)C(=N)c1ccc(C(=O)Nc2ccc(Cl)cc2C(=O)Nc2ccc(Cl)cn2)c(N2CCCCC2C(=O)O)c1` (configuration not stated), the Ki was above 2000 nM.

On to `COC(=O)c1ccc(Oc2ccc(NC(=O)c3ccc(C(=N)N(C)C)cc3)c(C(=O)Nc3ccc(Cl)cn3)c2)cc1`, for which the Ki came out at 570 nM.

In turn, `CCOC(=O)C1CCN(C(=N)c2ccc(C(=O)Nc3ccc(Cl)cc3C(=O)Nc3ccc(Cl)cn3)cc2)CC1` had an inhibition constant Ki of 17 nM. This Ki lies about 34-fold lower than the previous one.

`COc1cc(Cl)cc(C(=O)Nc2ccc(Cl)cn2)c1NC(=O)c1ccc(C(=N)N2CCC(C(=O)O)CC2)cc1F`: the inhibitory constant (Ki) was above 10000 nM.

As for `CN(C)C(=N)c1ccc(C(=O)Nc2ccc(Sc3ccc(C(=O)O)cc3)cc2C(=O)Nc2ccc(Cl)cn2)cc1`, affinity was put at a Ki of 4600 nM.

For `C/C(=C(\F)C(=O)N(CC(=O)O)c1ccc(-c2ccccc2S(N)(=O)=O)cc1)c1cccc(C(=N)N)c1`, the inhibition constant Ki is above 10000 nM.
